Data on two compounds can be found in patent US9499790B2, “Method for promoting differentiation of pluripotent stem cells into cardiac muscle cells” (Kyoto University, priority 2010, dated 2016).

Format in all cases: cell-based
One test deals with Human iPS (IMR90-1). As to the kind of experiment: Number of beating colonies of cardiac muscle cells. The settings on record: KY02111 5 μM during day 4 to 14. How it is done: The effect of promoting differentiation of each of the ES/iPS cells into cardiac muscle cells were confirmed for N11474 and KY02111 with the GFP expression level and number of beating colonies used as the indicators. Human ES cell line (Kh-1 line) (Suemori, H., et al., Efficient establishment of human embryonic stem cell lines and long-term maintenance with stable karyotype by enzymatic bulk passage. Biochem Biophys Res Commun. 345(3), 926-32 (2006)) (incorporated herein by reference) was seeded in a 6-well plate (Asahi Glass/5816-006: Ezview culture plate) in 1.2×10^6 cells/well and cultured for 22 days, with BMP4 (10 ng/ml) added during day 0 to 4 of culture and N11474 (10 μM) or KY02111 (5 μM) added during day 4 to 14 of culture. […] KY02111 (5 μM) was added for 3 days during day 6 to 9 of cardiac muscle cell differentiation culture and the beating colonies of cardiac muscle cells were analyzed at day 9. […] The effect of BIO, a Wnt signaling activator, on the effect of promoting cardiac muscle cell differentiation of KY02111, XAV939 and IWP2 was analyzed. […] The synergistic effects between KY02111 and a known Wnt signaling inhibitor XAV939 or IWP2 in the promotion of cardiac muscle cell differentiation were analyzed.

For another test, the system named is Human iPS (RCHIPC0003). As to the kind of experiment: Number of beating colonies of cardiac muscle cells. The settings on record: KY02111 5 μM during day 4 to 14. On the procedure: (§1) The effect of promoting differentiation of each of the ES/iPS cells into cardiac muscle cells were confirmed for N11474 and KY02111 with the GFP expression level and number of beating colonies used as the indicators. Human ES cell line (Kh-1 line) (Suemori, H., et al., Efficient establishment of human embryonic stem cell lines and long-term maintenance with stable karyotype by enzymatic bulk passage. Biochem Biophys Res Commun. 345(3), 926-32 (2006)) (incorporated herein by reference) was seeded in a 6-well plate (Asahi Glass/5816-006: Ezview culture plate) in 1.2×10^6 cells/well and cultured for 22 days, with BMP4 (10 ng/ml) added during day 0 to 4 of culture and N11474 (10 μM) or KY02111 (5 μM) added during day 4 to 14 of culture. Human iPS cell lines (253G1, IMR90-1, IMR90-4 and RCHIPC0003) (Takahashi, K., et al., Induction of pluripotent stem cells from adult human fibroblasts by defined factors. Cell. 131(5), 861-72 (2007); Yu, J., et al., Induced pluripotent stem cell lines derived from human somatic cells. Science. 318(5858), 1917-20 (2007)) (these references are herein incorporated by reference) were cultured for the cardiac muscle cell differentiation in the same manner as for the human ES cells. The cardiac muscle cells from mouse ES cells (R1) were differentiated in accordance with the method described in the reference (Transient inhibition of BMP signaling by Noggin induces cardiomyocyte differentiation of mouse embryonic stem cells. Yuasa S, et al. Nat. Biotechnol. 2005 May; 23(5): 607-11; incorporated herein by reference). KY02111 (5 μM) was added for 3 days during day 6 to 9 of cardiac muscle cell differentiation culture and the beating colonies of cardiac muscle cells were analyzed at day 9. Monkey ES cells (CMK6.4) were cultured for cardiac muscle cell differentiation in the same manner as in the above (2).

For a further test, the system named is mouse ES cells (R1). As to the kind of experiment: Number of beating colonies of cardiac muscle cells. The settings on record: KY02111 5 μM during day 6 to 9, analyzed at day 9. On the procedure: as §1
The next test deals with Human iPS (253G1). As to the kind of experiment: Number of beating colonies of cardiac muscle cells. The following applies: KY02111 5 μM during day 4 to 14. How it is done:
as §1

The test system of the next test is Monkey ES cells (CMK6.4). As to the kind of experiment: Number of beating colonies of cardiac muscle cells. The following applies: Monkey ES (CMK6.4). On the procedure:
as §1

A further test deals with Monkey ES cells. As to the kind of experiment: Cardiac muscle cell differentiation of monkey ES cells, 6-well plate, GFP expression observed at day 14. An excerpt: In the same manner as Example 2, the effects of promoting cardiac muscle cell differentiation were compared among KY02111 and N11474, known Wnt signaling inhibitors (IWP2, XAV939 and IWR1), proteins known to be effective in promoting cardiac muscle cell differentiation (G-CSF, IGFBP4, Dkk1 and cytokines (a mixture of bFGF, BMP4, VEGF, DKK1 and Activin A)).
The effect of BIO, a Wnt signaling activator, on the effect of promoting cardiac muscle cell differentiation of KY02111, XAV939 and IWP2 was analyzed. […]

In test [1] the test system is Wnt signaling target genes in human iPS cells. As to the kind of experiment: Gene expression analysis by DNA array and quantitative polymerase chain reaction. Set-up: expressions of genes by DNA array (HOXA1, MSGN1, NKD1, T, TNFRSF11B, DKK1, DKK4, CDX2, MSX1, NODAL, FGF4 and others): dose or concentration left out as unconfirmed. How it is done: (in the order of the genes whose expression were reduced most 12 hours later) HOXA1, MSGN1, NKD1, T, TNFRSF11B, DKK1, DKK4, CDX2, MSX1, NODAL, FGF4, PAPPA, PRRX1, LRAT, CYP1B1, SLC34A2, AXIN2, LGL1, SPS, MIXL1, APCDD1 and DSEL. […] The analyzed genes were as follows: MSGN1, HOXA1; T, MIXL1; Dkk1, AXIN2; NODAL and FGF4 (all known as Wnt signaling target genes).

For test [2], the system named is Human ES cell line (Kh-1 line). As to the kind of experiment: Cardiac muscle cell differentiation (GFP expression level, number of beating colonies). The following applies: N11474 10 μM during day 4 to 14. On the procedure:
as §1, with “The cardiac muscle cells from mouse ES cells (R1) were differentiated in accordance with the method described in the reference (Transient inhibition of BMP signaling by Noggin induces cardiomyocyte differentiation of mouse embryonic stem cells. Yuasa S, et al. Nat. Biotechnol. 2005 May; 23(5): 607-11; incorporated herein by reference).” left out, “Monkey ES cells (CMK6.4) were cultured for cardiac muscle cell differentiation in the same manner as in the above (2).” left out

The subject of the next test is Human iPS (IMR90-4). As to the kind of experiment: Number of beating colonies of cardiac muscle cells. The following applies: N11474 10 μM during day 4 to 14. On the procedure: as §1
Test [3] relates to monkey ES cell line (CMK 6.4 cynomolgus monkey ES cells). As to the kind of experiment: Screening of library compounds: GFP expression under alpha-MHC promoter, 96-well plates. The following applies: about 1 to 5 μM compound/well during day 6 to 14; HCS system. On the procedure:
A vector expressing green fluorescent protein (GFP) under control of promoter of α-MHC gene, a marker of cardiac muscle cell differentiation, was introduced into monkey ES cell line (CMK 6.4 cynomolgus monkey ES cells) and the cells were seeded on 96-well culture plates (Greiner/655090: 96 well FIA black plate) in 5.0×10^3 cells/well, and cultured for 14 days in an IMDM-based differentiation medium for cardiac muscle cells (200 ml. IMDM (Sigma 13390) containing 50 ml bovine fetal serum (GIBCO 10099-141), 2.5 ml MEM non-essential amino acid solution (Sigma M7145), 2.5 ml penicillin-streptomycin (GIBCO 15140), 2.5 ml 200 mM L-glutamine, 2 μl 2-mercaptoethanol (Sigma M7522), 255 μl 5N NaOH). During day 6 to 14 of culture, 9,600 library compounds were added into separate wells (about 1 to 5 μM compound/well). Then, at […] of culture, GFP expression level was determined by using HCS (high contents screening) system (Molecular device/MetaMorph imaging system).

Setting [4] is: 10 μM during day 4 to 10, GFP at day 14.
[5] abbreviates: KY02111 5 μM during day 4 to 8, singly.

Turning to `COc1ccc(CCC(=O)Nc2nc3ccc(Cl)cc3s2)cc1OC` [KY02111, 2-(3-(3,4-dimethoxyphenyl)propanamide)-6-chlorobenzothiazole], the “Beating cardiac muscle cell differentiation efficiency (Control (DMSO) = 100%)” value in the test with Human iPS (IMR90-1) is 6100% (KY02111); in the test on Human iPS (RCHIPC0003) it was 100% (KY02111); with mouse ES cells (R1), 200% (KY02111); in the test on Human iPS (253G1), 1500% (KY02111); in the test on Monkey ES cells (CMK6.4) it was 1850% (KY02111). For the same compound, in the test on Monkey ES cells (setting [4]), the “increase in the GFP expression level” value is reported as 7400%. In addition, in the test with Monkey ES cells (10 μM during day 4 to 10, GFP at day 14, FIG. 10), the “effect of promoting cardiac muscle cell differentiation (GFP expression), comparison with Wnt signaling inhibitors and proteins” value was “strongest effect of promoting cardiac muscle cell differentiation”. For the same compound, the “effect of BIO on the compound's effect of cardiac muscle cell differentiation (GFP expression)” value in the test with Monkey ES cells (BIO 5 μM added together with the compound during day 4 to 10, GFP at day 14) is listed as “did not inhibit”. In the test on Monkey ES cells (setting [5]), the “increase in the GFP expression level versus Control (DMSO)” value is given as “about 30 times”. In the test with Monkey ES cells (setting [5]), the “proportion of beating colonies” value was “about 30%”. Further, the “ratio of number of GFP colonies” value with Monkey ES cells (setting [5]) was roughly 73%. Also, in [1] (12 hours and 24 hours after the addition), the “expressions of genes by DNA array (HOXA1, MSGN1, NKD1, T, TNFRSF11B, DKK1, DKK4, CDX2, MSX1, NODAL, FGF4 and others)” value is “reduced”. The “expressions of MSGN1, HOXA1, T, MIXL1, Dkk1, AXIN2, NODAL and FGF4 (Wnt signaling target genes) by qPCR” value in test [1] (FIG. 9) is listed as “reduced”. For the same compound, in [1] (confirmation of DNA array, FIG. 8), the “expression of MSGN1, HOXA1, T, Dkk1 and FGF4 by qPCR” value was “same results as the DNA array analysis”.

Consider `COc1ccc2nc(NC(=O)Cc3ccc(OC)c(OC)c3)sc2c1` [N11474], for which the “Beating cardiac muscle cell differentiation efficiency (Control (DMSO) = 100%)” value in [2] (Human ES (Kh-1)) was 1100% (N11474); in the test on Human iPS (IMR90-4) it was 4000% (N11474). Besides, the GFP expression level result in test [2] (at day 14 and after of culture, FIG. 6) is given as “significant increase”; in test [3], “high GFP expression levels”. Besides, in the test on Monkey ES cells (setting [4]), the “increase in the GFP expression level” value is listed as 1000%.
